Assay results reported in US20190343907A1, “Synergistic Compositions and Methods of Achieving Homeostasis in Mammalian Systems” (priority 2017, published 2019).

How the values were obtained:
migraine headaches = assay: Case history: migraine headaches; format: in vivo, human; conditions: prescription, same subject
Description: A person experienced stress-induced episodes of migraine headaches five to six times/year, each preceded by a “trigger signal” of slight dizziness or light-headedness. […] The lotion of Example 1 was supplied by the subject. […] No migraine episodes have occurred in the past eight months.

shingles = assay: Case history: shingles; format: in vivo, human; conditions: prescription taken, within 1 week
Description: A person was diagnosed with shingles on the lower jaw and on the scalp. […] The subject was given the lotion of Example 1 with instructions to pre-treat the area with a menthol cream five minutes before applying the treatment cream. Twice daily application to the border of the shingles lesions along the axis of red streaks prevented further expansion of the […] lesions. In areas of blisters that had not ruptured, application of the treatment cream caused the blisters to recede and not rupture. […] Episodes of recurring post-herpetic neuralgia were treated successfully over the next six weeks with the cream giving reduction of redness, itching and pain.

SMILES	migraine pain relief (migraine headaches)	relief from pain or itching (shingles)
CNS(=O)(=O)Cc1ccc2[nH]cc(CCN(C)C)c2c1 [Sumatriptan]	slow to relieve the pain	
Nc1nc2c(ncn2COCCO)c(=O)[nH]1 [acyclovir]		no relief from pain or itching
